ChEMBL document CHEMBL5727202, “Aryl acylsulfonamides as BLT1 antagonists” (2019)

Biological target: Leukotriene B4 receptor 1 (Homo sapiens, UniProt Q15722)
Assay: BLT-1 cAMP Assay: The ability of compounds to antagonize the human BLT1 receptor was determined using a kit to measure changes in intracellular cyclic AMP levels (cAMP dynamic assay kit, Cisbio Cat. No. 62AM4PEC). HEK293 cells recombinantly expressing human BLT1 receptor, previously frozen in Recovery Medium (Life Technologies, Cat. No. 12648-010) were thawed and diluted into assay medium (HBSS (Hyclone SH 30268.01), 20 mM HEPES (Gibco 15630-106), 800 μM IBMX (Sigma I5879), 0.1% DTPA BSA (Perkin Elmer CR84-100)). The cell suspension was centrifuged at 200×g for 10 min and then resuspended in fresh assay medium to a density of 2.5×10^5 cells/mL. A Labcyte Echo 550 acoustic dispenser was used to transfer 25 nL of test compound dissolved in DMSO into the wells of a dry 384-well plate (Greiner 784075). All subsequent liquid additions were performed using a BIORAPTR (FRD; Beckman Coulter). Next, 5 μL of cell suspension was added and incubated for 20 min. at 37° C. and 5% CO2 in a humidified plastic tray. To test for agonist activity […] of assay buffer containing forskolin (Sigma F-6886. 4 μM for BLT1) was added and incubated for 30 minutes at 37° C. and 5% CO2 in a humidified plastic tray. To test for antagonist activity 5 μL of assay buffer containing forskolin (Sigma F-6886. 4 μM for BLT1) and either LTB4 (Sigma Aldrich L0517; 2 nM BLT1) was added and incubated for 30 minutes at 37° C. and 5% CO2 in a humidified plastic tray.The levels of cAMP were detected using the CisBio kit following the manufacturer's instructions: cAMP-d2 vial was reconstituted with distilled water and then diluted accordingly with conjugate & lysis buffer. 5 μL of cAMP-d2 working solution was added to all of the wells of the assay plate. cAMP-Cryptate vial was reconstituted with distilled water and then diluted accordingly with conjugate & lysis buffer. 5 μL of cAMP-Cryptate working solution were added to the assay plate. […]
Type: cell-based

Sequence of Leukotriene B4 receptor 1 (Q15722 whole entry): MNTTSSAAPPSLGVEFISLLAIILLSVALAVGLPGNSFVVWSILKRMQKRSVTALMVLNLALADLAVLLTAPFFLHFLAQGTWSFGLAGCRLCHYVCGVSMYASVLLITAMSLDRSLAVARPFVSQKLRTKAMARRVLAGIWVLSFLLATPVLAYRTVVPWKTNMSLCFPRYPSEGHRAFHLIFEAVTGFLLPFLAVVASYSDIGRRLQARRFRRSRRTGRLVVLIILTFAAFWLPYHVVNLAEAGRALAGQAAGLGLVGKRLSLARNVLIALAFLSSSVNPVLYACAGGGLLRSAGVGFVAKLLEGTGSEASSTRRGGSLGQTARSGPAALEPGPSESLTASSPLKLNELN

EC50 [nM]	SMILES
538	CCn1nccc1C[C@@H]1COc2cc(-c3ccccc3C(=O)NS(=O)(=O)C3(C)CC3)ccc2[C@H]1O (racemic)
35	O=C(NS(=O)(=O)C(F)(F)F)c1ccc(F)cc1-c1ccc2c(c1)OC[C@H](Cc1ccc(-c3ccccc3)cc1)[C@H]2O (single isomer, unassigned)
60	CC1(S(=O)(=O)NC(=O)c2ccccc2-c2ccc3c(c2)OC[C@@H](Cc2coc(-c4ccccc4)n2)[C@@H]3O)CC1 (single isomer, unassigned)
